{"source": "patent US7462713B2", "about": "“Tricyclic compounds protein kinase inhibitors for enhancing the efficacy of anti-neoplastic agents and radiation therapy” (Agouron Pharmaceuticals, Inc., priority 2003, dated 2008)", "biological_target": "T1, kinase domain of human CHK-1 (KH289) (Homo sapiens, UniProt O14757)", "T1 construct": "kinase domain of human CHK-1 (KH289), amino acid residues 1-289; made in house; host or cells: baculovirus (Bac-to-Bac); Hi-S insect cells for protein production, Sf9/Sf21 for virus amplification", "T1 sequence (O14757 1-289)": "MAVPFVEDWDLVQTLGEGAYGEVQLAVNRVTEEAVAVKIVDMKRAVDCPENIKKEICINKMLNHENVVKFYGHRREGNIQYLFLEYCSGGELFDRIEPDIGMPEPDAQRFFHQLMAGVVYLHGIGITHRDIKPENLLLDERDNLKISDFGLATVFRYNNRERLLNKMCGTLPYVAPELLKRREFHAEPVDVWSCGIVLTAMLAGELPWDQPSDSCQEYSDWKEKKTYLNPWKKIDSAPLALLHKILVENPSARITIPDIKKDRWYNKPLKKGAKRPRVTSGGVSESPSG", "assay": "CHK-1 coupled spectrophotometric enzyme assay (Syntide-2, PK/LDH, NADH oxidation)", "assay_type": "biochemical", "details": "10 nM KH289, 0.15 mM ATP, 0.125 mM Syntide-2, pH 7.5", "description": "As previously detailed in European Patent Application No. 1 096 014 A2 (filed Oct. 31, 2000), the C-terminally His-tagged kinase domain of human CHK-1 (KH289), amino acid residues 1-289, can be expressed using the baculovirus/insect cell system. […] The Bac-to-Bac system (Life Technologies) can be used to generate recombinant baculovirus for the expression of KH289 as per instructions. Recombinant viruses can be confirmed by PCR for the presence of CHK-1 cDNA insertion. […] Sf9 insect cells (Invitrogen, Carlsbad, Calif., USA) can be used for initial amplification of recombinant virus stock. High titer stocks of recombinant viruses can be generated by 2 to 3 rounds of amplification using Sf21 insect cells. Hi-S insect cells (Invitrogen, Carlsbad, Calif., USA) can be used for protein production. Both Sf9 and Hi-S cell lines can be adapted to grow in insect medium containing 1% Fetal Bovine Serum (Life Technologies, Grand Island, N.Y., USA). The viral stock was stored at […] and used for large-scale protein production within 2 months to avoid viral instability. For protein production, infected Hi-S cells can be harvested by centrifugation and stored at −80° C. From these cells, 6X-His tagged KH289 (identified by SDS-PAGE) can be obtained after purification and can be flash-frozen in liquid N2 and stored at −80° C.\nAs previously detailed in European Patent Application No. 1 096 014 A2 (filed Oct. 31, 2000), the enzymatic activity of a kinase can be measured by its ability to catalyze the transfer of a phosphate residue from a nucleoside triphosphate to an amino acid side chain in a selected protein target. The conversion of ATP to ADP generally accompanies the catalytic reaction. Herein, a synthetic substrate peptide, Syntide-2, having amino acid sequence […] can be utilized. The production of ADP from ATP that accompanies phosphoryl transfer to the substrate can be coupled to oxidation of NADH using phosphoenolpyruvate (PEP) through the actions of pyruvate kinase (PK) and lactic dehydrogenase (LDH). The oxidation of NADH can be monitored by following the decrease of absorbance at 340 nm (e340=6.22 cm-1 mM-1) using a HP8452 spectrophotometer. Typical reaction solutions contained: 4 mM PEP, 0.15 mM NADH, 28 units of LDH/mL, 16 units of PK/mL, 3 mM DTT, 0.125 mM Syntide-2, 0.15 mM ATP and 25 mM MgCl2 in 50 mM TRIS pH 7.5; 400 mM NaCl. Assays can be initiated with 10 nM of kinase domain of CHK-1, KH289. Ki values can be determined by measuring initial enzyme activity in the presence of varying concentrations of inhibitors. The data can be analyzed using Enzyme Kinetic and Kaleidagraph software.", "note": "Where a name gives a salt, the structure may show the parent alone."}
{"compound": "Cn1cc(-c2[nH]c3cc(NC(=O)[C@H](N)C4Cc5ccccc5C4)cc4c3c2C=NNC4=O)cn1", "note": "[Example 255, (2R)-2-Amino-2-indan-2-yl-N-[2-(1-methyl-1H-pyrazol-4-yl)-6-oxo-5,6-dihydro-1H-[1,2]diazepino[4,5,6-cd]indol-8-yl]-acetamide (hydrochloric salt)]", "values": [{"measurement": "Ki", "value": 0.14, "unit": "nM"}]}
{"compound": "Cn1cc(-c2[nH]c3cc(NC(=O)[C@H](N)CCc4ccccc4)cc4c3c2C=NNC4=O)cn1", "note": "[Example 256, (2R)-2-Amino-N-[2-(1-methyl-1H-pyrazol-4-yl)-6-oxo-5,6-dihydro-1H-[1,2]diazepino[4,5,6-cd]indol-8-yl]-4-phenyl-butylamide (hydrochloric salt)]", "values": [{"measurement": "Ki", "value": 0.78, "unit": "nM"}]}
{"compound": "N[C@@H](C(=O)Nc1cc2c3c(c[nH]c3c1)C=NNC2=O)C1Cc2ccccc2C1", "note": "[Example 257, (2R)-2-Amino-2-indan-2-yl-N-(6-oxo-5,6-dihydro-1H-[1,2]diazepino[4,5,6-cd]indol-8-yl)-acetamide (hydrochloric salt)]", "values": [{"measurement": "Ki", "value": 0.27, "unit": "nM"}]}
{"compound": "N[C@H](CCc1ccccc1)C(=O)Nc1cc2c3c(c(Br)[nH]c3c1)C=NNC2=O", "note": "[Example 259, (2R)-2-Amino-N-(2-bromo-6-oxo-5,6-dihydro-1H-[1,2]diazepino[4,5,6-cd]indol-8-yl)-4-phenyl-butylamide (hydrochloric salt)]", "values": [{"measurement": "Ki", "value": 0.99, "unit": "nM"}]}
{"compound": "Cc1ccc(-c2[nH]c3cc(NC(=O)[C@H](N)C4Cc5ccccc5C4)cc4c3c2C=NNC4=O)cn1", "note": "[Example 260, (2R)-2-Amino-2-indan-2-yl-N-[2-(6-methyl-pyridin-3-yl)-6-oxo-5,6-dihydro-1H-[1,2]diazepino[4,5,6-cd]indol-8-yl]-acetamide (hydrochloric salt)]", "values": [{"measurement": "Ki", "value": 0.42, "unit": "nM"}]}
{"compound": "N[C@H](CCc1ccccc1)C(=O)Nc1cc2c3c(c(Cl)[nH]c3c1)C=NNC2=O", "note": "[Example 261, (2R)-2-Amino-N-(2-chloro-6-oxo-5,6-dihydro-1H-[1,2]diazepino[4,5,6-cd]indol-8-yl)-4-phenyl-butylamide (hydrochloric salt)]", "values": [{"measurement": "Ki", "value": 2, "unit": "nM"}]}
{"compound": "Cn1cc(-c2[nH]c3cc(NC(=O)[C@]4(N)C[C@H]4c4ccccc4)cc4c3c2C=NNC4=O)cn1", "note": "[Example 262, (1S,2S)-1-Amino-2-phenyl-cyclopropanecarboxylic acid [2-(1-methyl-1H-Pyrazol-4-yl)-6-oxo-5,6-dihydro-1H-[1,2]diazepino[4,5,6-cd]indol-8-yl]-amide (hydrochloric salt)]", "values": [{"measurement": "Ki", "value": 0.3, "unit": "nM"}]}
{"compound": "Cn1cc(-c2[nH]c3cc(NC(=O)[C@H](N)COc4ccc(F)cc4)cc4c3c2C=NNC4=O)cn1", "note": "[Example 263, (2R)-2-Amino-3-(4-fluoro-phenoxy)-N-[2-(1-methyl-1H-pyrazol-4-yl)-6-oxo-5,6-dihydro-1H-[1,2]diazepino[4,5,6-cd]indol-8-yl]-propionamide (hydrochloric salt)]", "values": [{"measurement": "Ki", "value": 0.43, "unit": "nM"}]}
{"compound": "Cn1cc(-c2[nH]c3cc(NC(=O)[C@H](N)COc4ccccc4)cc4c3c2C=NNC4=O)cn1", "note": "[Example 264, (2R)-2-Amino-N-[2-(1-methyl-1H-pyrazol-4-yl)-6-oxo-5,6-dihydro-1H-[1,2]diazepino[4,5,6-cd]indol-8-yl]-3-phenoxy-propionamide (hydrochloric salt)]", "values": [{"measurement": "Ki", "value": 0.48, "unit": "nM"}]}
{"compound": "N[C@@H](C(=O)Nc1cc2c3c(c(Cl)[nH]c3c1)C=NNC2=O)C1Cc2ccccc2C1", "note": "[Example 265, (2R)-2-Amino-N-(2-chloro-6-oxo-5,6-dihydro-1H-[1,2]diazepino[4,5,6-cd]indol-8-yl)-2-indan-2-yl-acetamide (hydrochloric salt)]", "values": [{"measurement": "Ki", "value": 0.73, "unit": "nM"}]}
{"compound": "Cn1cnc(-c2[nH]c3cc(NC(=O)[C@H](N)CCc4ccccc4)cc4c3c2C=NNC4=O)c1", "note": "[Example 266, (2R)-2-Amino-N-[2-(1-methyl-1H-imidazol-4-yl)-6-oxo-5,6-dihydro-1H-[1,2]diazepino[4,5,6-cd]indol-8-yl]-4-phenyl-butylamide (hydrochloric salt)]", "values": [{"measurement": "Ki", "value": 0.29, "unit": "nM"}]}
{"compound": "Cc1ccc(-c2[nH]c3cc(NC(=O)[C@H](N)CCc4ccccc4)cc4c3c2C=NNC4=O)cn1", "note": "[Example 267, (2R)-2-Amino-N-[2-(6-methyl-pyridin-3-yl)-6-oxo-5,6-dihydro-1H-[1,2]diazepino[4,5,6-cd]indol-8-yl]-4-phenyl-butylamide (hydrochloric salt)]", "values": [{"measurement": "Ki", "value": 0.78, "unit": "nM"}]}
{"compound": "Cc1cc(-c2[nH]c3cc(NC(=O)[C@H](N)CCc4ccccc4)cc4c3c2C=NNC4=O)on1", "note": "[Example 268, (2R)-2-Amino-N-[2-(3-methyl-isoxazol-5-yl)-6-oxo-5,6-dihydro-1H-[1,2]diazepino[4,5,6-cd]indol-8-yl]-4-phenyl-butylamide (hydrochloric salt)]", "values": [{"measurement": "Ki", "value": 0.01, "unit": "nM"}]}
{"compound": "Cc1cc(-c2[nH]c3cc(NC(=O)[C@H](N)C4Cc5ccccc5C4)cc4c3c2C=NNC4=O)on1", "note": "[Example 269, (2R)-2-Amino-2-indan-2-yl-N-[2-(3-methyl-isoxazol-5-yl)-6-oxo-5,6-dihydro-1H-[1,2]diazepino[4,5,6-cd]indol-8-yl]-acetamide]", "values": [{"measurement": "Ki", "value": 0.15, "unit": "nM"}]}
{"compound": "Cn1cc(-c2[nH]c3cc(NC(=O)CNCc4ccccc4)cc4c3c2C=NNC4=O)cn1", "note": "[Example 270, 2-Benzylamino-N-[2-(1-methyl-1H-pyrazol-4-yl)-6-oxo-5,6-dihydro-1H-[1,2]diazepino[4,5,6-cd]indol-8-yl]-acetamide (hydrochloric salt)]", "values": [{"measurement": "Ki", "value": 0.79, "unit": "nM"}]}
{"compound": "Cn1cnc(-c2[nH]c3cc(NC(=O)[C@H](N)C4CCCCC4)cc4c3c2C=NNC4=O)c1", "note": "[Example 271, (2R)-2-Amino-2-cyclohexyl-N-[2-(1-methyl-1H-imidazol-4-yl)-6-oxo-5,6-dihydro-1H-[1,2]diazepino[4,5,6-cd]indol-8-yl]-acetamide (hydrochloric salt)]", "values": [{"measurement": "Ki", "value": 1.2, "unit": "nM"}]}
{"compound": "Cn1cc(-c2[nH]c3cc(NC(=O)[C@H](N)c4ccc(F)cc4)cc4c3c2C=NNC4=O)cn1", "note": "[Example 273, (2R)-2-Amino-2-(4-fluoro-phenyl)-N-[2-(1-methyl-1H-pyrazol-4-yl)-6-oxo-5,6-dihydro-1H-[1,2]diazepino[4,5,6-cd]indol-8-yl]-acetamide (hydrochloric salt)]", "values": [{"measurement": "Ki", "value": 0.46, "unit": "nM"}]}
{"compound": "CN(CC(=O)Nc1cc2c3c(c(-c4cnn(C)c4)[nH]c3c1)C=NNC2=O)Cc1ccccc1", "note": "[Example 274, 2-(Benzyl-methyl-amino)-N-[2-(1-methyl-1H-pyrazol-4-yl)-6-oxo-5,6-dihydro-1H-[1,2]diazepino[4,5,6-cd]indol-8-yl]-acetamide]", "values": [{"measurement": "Ki", "value": 2, "unit": "nM"}]}
{"compound": "O=C1NN=Cc2c[nH]c3cc(OCC4CC4c4ccccc4)cc1c23", "note": "(centres unmarked) [Example 275, 8-[(2-phenylcyclopropyl)methoxy]-1,5-dihydro-6H-[1,2]diazepino[4,5,6-cd]indol-6-one]", "values": [{"measurement": "Ki", "value": 7, "unit": "nM"}]}
{"compound": "N[C@H](CCc1ccccc1)C(=O)Nc1cc2c3c(c[nH]c3c1)C=NNC2=O", "note": "[Example 276, (2R)-2-Amino-N-(6-oxo-5,6-dihydro-1H-[1,2]diazepino[4,5,6-cd]indol-8-yl)-4-Phenyl-butylamide (hydrochloric salt)]", "values": [{"measurement": "Ki", "value": 4.5, "unit": "nM"}]}
{"compound": "N[C@H](CCc1ccccc1)C(=O)Nc1cc2c3c(c(-c4ccccn4)[nH]c3c1)C=NNC2=O", "note": "[Example 277, (2R)-2-amino-N-(6-oxo-2-pyridin-2-yl-5,6-dihydro-1H-[1,2]diazepino[4,5,6-cd]indol-8-yl)-4-phenylbutanamide]", "values": [{"measurement": "Ki", "value": 0.55, "unit": "nM"}]}
{"compound": "N[C@@H](C(=O)Nc1cc2c3c(c(-c4ccccn4)[nH]c3c1)C=NNC2=O)C1Cc2ccccc2C1", "note": "[Example 278, (2R)-2-amino-2-(2,3-dihydro-1H-inden-2-yl)-N-(6-oxo-2-pyridin-2-yl-5,6-dihydro-1H-[1,2]diazepino[4,5,6-cd]indol-8-yl)acetamide (hydrochloric salt)]", "values": [{"measurement": "Ki", "value": 0.47, "unit": "nM"}]}
{"compound": "(2R)-2-Amino-2-indan-2-yl-N-[2-(1-methyl-1H-imidazol-4-yl)-6-oxo-5,6-dihydro-1H-[1,2]diazepino[4,5,6-cd]indol-8-yl]-acetamide (hydrochloric salt) [Example 272]", "values": [{"measurement": "Ki", "value": 0.2, "unit": "nM"}]}
